Assay results from ChEMBL document CHEMBL1121410, “Structure--taste relationship of perillartine and nitro- and cyanoaniline derivatives” (J Med Chem, 1980).

How the values were obtained:
Homo sapiens [1] = species: Homo sapiens; assay: Taste quality; type: functional
Homo sapiens [2] = species: Homo sapiens; assay: Activity expressed by taste potency (taste intensity relative to sucrose on a mole/mole basis); type: functional
[3] = Evaluated for taste quality, NS means not sweet
[4] = Evaluated for taste quality,
[5] = The activity was expressed by the logarithm of the taste potency as measure of taste intensity relative to that of sucrose on a mole/mole basis;T = tasteless
[6] = The activity was expressed by the logarithm of the taste potency as measure of taste intensity relative to that of sucrose on a mole/mole basis; NI means not isolated
[7] = The activity was expressed by the logarithm of the taste potency as measure of taste intensity relative to that of sucrose on a mole/mole basis; I means insoluble

Row | Structure (SMILES) | Log sweet/bitter (Homo sapiens [1]) | Log A (Homo sapiens [2]) | further results
1 | CC(C)(OCC(=O)O)C1CC=C(/C=N/O)CC1 (centres undefined) [listing 1 of 2 here] | 0.15 | 1.98 | –
2 | C/C=C(C)/C(C)=N/O | – | 2.15 | –
3 | C/C(=N\O)C1=CCCCC1 | – | 2.61 | Log sweet/bitter [3]: Not sweet
4 | CCOC1CC=C(/C=N/O)CC1 (centres undefined) | 0.21 | 1.2 | –
5 | COCC/C=C(C)/C=N/O | – | 0.6 | –
6 | CCCOc1ccc([N+](=O)[O-])cc1N | – | 3.46 | –
7 | N#Cc1ccc(Cl)c(N)c1 | – | 2.13 | –
8 | CCCCOc1ccc([N+](=O)[O-])cc1N | – | 2.79 | –
9 | CC1=CC=C(/C=N/O)CC1 | 0.23 | 2.18 | –
10 | Nc1cc([N+](=O)[O-])ccc1O [2-AMINO-4-NITROPHENOL] | – | 1.96 | –
11 | CC(O)(CO)C1CC=C(/C=N/O)CC1 (centres undefined) | -1.15 | 1.48 | –
12 | CC(C)(O)C1CC=C(/C=N/O)CC1 (centres undefined) | – | 0.9 | Log sweet/bitter [4]: -0.66
13 | O/N=C/C1=CCCC1 | – | 1.74 | –
14 | N#Cc1ccc(Br)c(N)c1 | – | 2.46 | –
15 | Nc1cc([N+](=O)[O-])ccc1I | – | 2.98 | –
16 | Nc1cc([N+](=O)[O-])ccc1F | – | 1.26 | –
17 | COCCC1CC=C(/C=N/O)CC1 (centres undefined) | – | – | Log A [5]: Tasteless
18 | COc1ccc([N+](=O)[O-])cc1N | – | 2.21 | –
19 | O/N=C/C1=CCCOC1 | – | 0.3 | –
20 | CC1=CCC(/C=N/O)=CC1 | 1.42 | 2.7 | –
21 | COCC1=CCC=C(/C=N/O)C1 | – | 2.15 | Log sweet/bitter [3]: Not sweet
22 | CCOc1ccc([N+](=O)[O-])cc1N | – | 2.87 | –
23 | O/N=C/C1=CCC=CC1 | – | 2.3 | –
24 | COCC1CC=C(/C=N/O)CC1 (centres undefined) | 0.38 | 1.72 | –

Row | Structure (SMILES) | Log sweet/bitter (Homo sapiens [1]) | Log A (Homo sapiens [2]) | further results
25 | CC(C)(OCC(=O)O)C1CC=C(/C=N/O)CC1 (centres undefined) [listing 2 of 2 here] | – | – | Log sweet/bitter [3]: Not sweet
26 | Cc1ccc([N+](=O)[O-])cc1N | – | 2.17 | –
27 | CCCOc1ccc(C#N)cc1N | – | 3.11 | –
28 | Nc1cccc([N+](=O)[O-])c1 [3-NITROANILINE] | – | 1.21 | –
29 | C=C(C)/C=N/O | – | 0.9 | –
30 | O/N=C/C1=CC2C=CC1CC2 (centres undefined) | – | 2.51 | Log sweet/bitter [3]: Not sweet
31 | C=CC1C=C(/C=N/O)CCC1 (centres undefined) | -0.39 | 2.24 | –
32 | COCC(OC)C1CC=C(/C=N/O)CC1 (centres undefined) | – | 0.9 | Log sweet/bitter [3]: Not sweet
33 | CC(=O)C1CC=C(/C=N/O)CC1 (centres undefined) | 0.22 | 1.08 | –
34 | COC(C)C1CCC=C(/C=N/O)C1 (centres undefined) | -1.4 | 1.45 | –
35 | O/N=C/C1=CC=CCC1 | – | 1.95 | –
36 | O/N=C/C1=CCCCC1 | – | 1.74 | –
37 | COCC1CC=C(/C=N/O)C1 (centres undefined) | 0.64 | 1.38 | –
38 | COC(C)C1=CCC(/C=N/O)=CC1 (centres undefined) | 1.96 | 2.48 | –
39 | C=COc1ccc([N+](=O)[O-])cc1N | – | 3.06 | –
40 | CO/N=C(/C)C1CC=C(/C=N/O)CC1 (centres undefined) | – | 1.9 | –
41 | COCC1=CC=C(/C=N/O)CC1 | – | – | Log A [6]: Not isolated
42 | COCCOCC1CC=C(/C=N/O)CC1 (centres undefined) | – | – | Log A [7]: Insoluble
43 | CC1(C2CC=C(/C=N/O)CC2)CO1 (centres undefined) | – | 1.7 | –
44 | CCCc1ccc([N+](=O)[O-])cc1N | – | 3.02 | –
45 | COCC(C)(OC)C1CC=C(/C=N/O)CC1 (centres undefined) | – | 1.7 | –
46 | COCC(C)(O)C1CC=C(/C=N/O)CC1 (centres undefined) | -1.05 | 0.6 | –
47 | O/N=C/C1=COCCC1 | – | 0.48 | –
48 | O/N=C/C1=CCOCC1 | – | 0.18 | –

Row | Structure (SMILES) | Log sweet/bitter (Homo sapiens [1]) | Log A (Homo sapiens [2]) | further results
49 | CCOc1ccc(C#N)cc1N | – | 2.63 | –
50 | C=C(C)C1CC=C(/C=N/O)CC1 (centres undefined) | 0.38 | 2.57 | –
51 | N#Cc1cccc(N)c1 | – | 0.94 | –
52 | COCC1=CCC(/C=N/O)=CC1 | 1.65 | 2.35 | –
53 | C/C=C(C)/C=N/O | – | 1.6 | –
54 | COCC1CCC=C1/C=N/O (centres undefined) | -0.12 | 1.52 | –
55 | Nc1cc([N+](=O)[O-])ccc1Cl | – | 2.31 | –
56 | COC(C)C1=CCC=C(/C=N/O)C1 (centres undefined) | – | 1.96 | Log sweet/bitter [3]: Not sweet
57 | CC1CC=C(/C=N/O)C(C)O1 (centres undefined) | – | 1 | Log sweet/bitter [3]: Not sweet
58 | COCCCC/C=C(C)/C=N/O | – | 1.23 | –
59 | CC(C)C1=CCC(/C=N/O)=CC1 | -0.07 | 2.51 | –
60 | CC(C)Oc1ccc([N+](=O)[O-])cc1N | – | 2.54 | –
61 | Nc1cc([N+](=O)[O-])ccc1Br | – | 2.71 | –
62 | COc1ccc(C#N)cc1N | – | 1.89 | –
63 | CC(C)(OCC(=O)[O-])C1CC=C(/C=N/O)CC1.[Na+] (centres undefined) | – | 1 | –
64 | COC(C)(CO)C1CC=C(/C=N/O)CC1 (centres undefined) | -1.4 | 1.04 | –
65 | CC1CC=C(/C=N/O)CC1 (centres undefined) | -0.1 | 2.4 | –
66 | C=CC1CC=C(/C=N/O)CC1 (centres undefined) | 0.7 | 3.06 | –
67 | COC(C)C1CC=C(/C=N/O)CC1 (centres undefined) | 0.4 | 1.9 | –
68 | COC(C)C1=CC=C(/C=N/O)CC1 (centres undefined) | 0.97 | 2.13 | –
69 | COC1CC=C(/C=N/O)CC1 (centres undefined) | 0.21 | 0.9 | –
70 | O/N=C/C1=CCSCC1 | – | 1.3 | –
